Results published in patent US12685735B2 (Foghorn Therapeutics Inc., priority 2020, dated 2026).
Like-named read-outs stand apart in the source and are kept apart here.

What was measured:
BRM = BRM (Homo sapiens, UniProt P51531); test: ATPase catalytic activity assay of BRM (ADP-Glo); format: biochemical; conditions: for IC50: read-out: BRM IC50 (μM)*
Procedure, shortened: (§1)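 ADP formed by the ATPase reaction was quantified by ADP-Glo luminescence. After the reaction, unconsumed ATP was depleted (40 min, room temperature), then ADP was converted to ATP for luciferase detection (60 min, room temperature) before reading on a luminometer.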

BRG-1 = BRG-1 (Homo sapiens, UniProt P51532); test: ATPase catalytic activity assay of BRG-1 (ADP-Glo); format: biochemical; conditions: ATPase catalytic activity, ADP-Glo; for IC50: read-out: BRG1 IC50 (μM)*; for Emax: read-out: BRG1 Max % Inhibition
Sequence of BRG-1 (P51532 whole entry): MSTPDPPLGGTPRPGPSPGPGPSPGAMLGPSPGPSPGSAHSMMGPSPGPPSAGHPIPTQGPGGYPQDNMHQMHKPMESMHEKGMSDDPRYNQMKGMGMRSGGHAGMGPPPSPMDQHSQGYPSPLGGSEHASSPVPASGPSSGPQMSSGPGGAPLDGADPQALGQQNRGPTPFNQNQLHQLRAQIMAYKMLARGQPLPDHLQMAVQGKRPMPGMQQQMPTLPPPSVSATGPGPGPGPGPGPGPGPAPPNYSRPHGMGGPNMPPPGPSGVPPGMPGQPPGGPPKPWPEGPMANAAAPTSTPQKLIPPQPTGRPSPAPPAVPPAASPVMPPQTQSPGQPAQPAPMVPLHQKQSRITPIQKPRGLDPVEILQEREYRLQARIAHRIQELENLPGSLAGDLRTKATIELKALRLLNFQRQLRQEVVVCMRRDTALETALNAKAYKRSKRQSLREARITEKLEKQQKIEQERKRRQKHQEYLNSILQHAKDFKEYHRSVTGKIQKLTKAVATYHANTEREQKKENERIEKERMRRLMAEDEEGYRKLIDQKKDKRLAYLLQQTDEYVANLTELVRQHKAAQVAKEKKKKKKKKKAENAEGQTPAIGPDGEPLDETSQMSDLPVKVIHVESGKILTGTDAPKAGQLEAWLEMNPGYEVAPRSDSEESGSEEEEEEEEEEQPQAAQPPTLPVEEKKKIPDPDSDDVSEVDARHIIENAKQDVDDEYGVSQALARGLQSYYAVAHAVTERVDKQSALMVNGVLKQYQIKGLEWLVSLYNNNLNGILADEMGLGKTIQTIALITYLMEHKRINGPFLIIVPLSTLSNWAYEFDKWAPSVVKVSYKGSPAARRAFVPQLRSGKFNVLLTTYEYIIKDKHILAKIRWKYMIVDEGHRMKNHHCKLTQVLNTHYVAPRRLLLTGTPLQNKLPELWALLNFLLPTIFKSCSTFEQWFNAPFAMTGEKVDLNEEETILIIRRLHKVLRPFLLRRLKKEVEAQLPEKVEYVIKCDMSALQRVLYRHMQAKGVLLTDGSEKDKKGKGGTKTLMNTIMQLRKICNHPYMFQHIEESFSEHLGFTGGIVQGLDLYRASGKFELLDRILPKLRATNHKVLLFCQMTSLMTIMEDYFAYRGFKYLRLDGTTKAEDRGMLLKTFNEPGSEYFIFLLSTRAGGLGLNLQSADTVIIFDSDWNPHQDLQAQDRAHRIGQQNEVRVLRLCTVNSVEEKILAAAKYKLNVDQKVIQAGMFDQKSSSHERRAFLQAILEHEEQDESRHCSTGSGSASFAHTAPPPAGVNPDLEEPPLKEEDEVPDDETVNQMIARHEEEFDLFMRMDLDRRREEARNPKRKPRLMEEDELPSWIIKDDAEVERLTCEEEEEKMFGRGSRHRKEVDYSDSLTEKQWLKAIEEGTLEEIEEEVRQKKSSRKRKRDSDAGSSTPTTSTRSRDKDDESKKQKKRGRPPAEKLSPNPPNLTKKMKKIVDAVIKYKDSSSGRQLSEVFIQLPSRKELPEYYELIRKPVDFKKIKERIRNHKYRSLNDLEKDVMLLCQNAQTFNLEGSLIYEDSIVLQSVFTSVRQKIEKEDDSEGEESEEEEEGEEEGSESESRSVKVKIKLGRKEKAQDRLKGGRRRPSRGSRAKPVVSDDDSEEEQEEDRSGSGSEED
Procedure, shortened: as §1

[1] = test system: Uveal melanoma cell lines, 92-1 or MP41; test: Comparison of BRG1/BRM inhibitor to clinical PKC and MEK inhibitors, cell growth (Cell-titer glo, 3 days); format: cell-based; conditions: 92-1 or MP41 cells, versus LXS196 and Selumetinib
Procedure: Procedure: Uveal melanoma cell lines, 92-1 or MP41, were plated in 96 well plates in the presence of growth media (See Table 6). […] Cells were incubated at 37 degrees Celsius for 3 days. After three days of treatment, cell growth was measured with Cell-titer glow (Promega), and luminescence was read on an Envision plate reader (Perkin Elmer).

Sequence of BRM (P51531 whole entry): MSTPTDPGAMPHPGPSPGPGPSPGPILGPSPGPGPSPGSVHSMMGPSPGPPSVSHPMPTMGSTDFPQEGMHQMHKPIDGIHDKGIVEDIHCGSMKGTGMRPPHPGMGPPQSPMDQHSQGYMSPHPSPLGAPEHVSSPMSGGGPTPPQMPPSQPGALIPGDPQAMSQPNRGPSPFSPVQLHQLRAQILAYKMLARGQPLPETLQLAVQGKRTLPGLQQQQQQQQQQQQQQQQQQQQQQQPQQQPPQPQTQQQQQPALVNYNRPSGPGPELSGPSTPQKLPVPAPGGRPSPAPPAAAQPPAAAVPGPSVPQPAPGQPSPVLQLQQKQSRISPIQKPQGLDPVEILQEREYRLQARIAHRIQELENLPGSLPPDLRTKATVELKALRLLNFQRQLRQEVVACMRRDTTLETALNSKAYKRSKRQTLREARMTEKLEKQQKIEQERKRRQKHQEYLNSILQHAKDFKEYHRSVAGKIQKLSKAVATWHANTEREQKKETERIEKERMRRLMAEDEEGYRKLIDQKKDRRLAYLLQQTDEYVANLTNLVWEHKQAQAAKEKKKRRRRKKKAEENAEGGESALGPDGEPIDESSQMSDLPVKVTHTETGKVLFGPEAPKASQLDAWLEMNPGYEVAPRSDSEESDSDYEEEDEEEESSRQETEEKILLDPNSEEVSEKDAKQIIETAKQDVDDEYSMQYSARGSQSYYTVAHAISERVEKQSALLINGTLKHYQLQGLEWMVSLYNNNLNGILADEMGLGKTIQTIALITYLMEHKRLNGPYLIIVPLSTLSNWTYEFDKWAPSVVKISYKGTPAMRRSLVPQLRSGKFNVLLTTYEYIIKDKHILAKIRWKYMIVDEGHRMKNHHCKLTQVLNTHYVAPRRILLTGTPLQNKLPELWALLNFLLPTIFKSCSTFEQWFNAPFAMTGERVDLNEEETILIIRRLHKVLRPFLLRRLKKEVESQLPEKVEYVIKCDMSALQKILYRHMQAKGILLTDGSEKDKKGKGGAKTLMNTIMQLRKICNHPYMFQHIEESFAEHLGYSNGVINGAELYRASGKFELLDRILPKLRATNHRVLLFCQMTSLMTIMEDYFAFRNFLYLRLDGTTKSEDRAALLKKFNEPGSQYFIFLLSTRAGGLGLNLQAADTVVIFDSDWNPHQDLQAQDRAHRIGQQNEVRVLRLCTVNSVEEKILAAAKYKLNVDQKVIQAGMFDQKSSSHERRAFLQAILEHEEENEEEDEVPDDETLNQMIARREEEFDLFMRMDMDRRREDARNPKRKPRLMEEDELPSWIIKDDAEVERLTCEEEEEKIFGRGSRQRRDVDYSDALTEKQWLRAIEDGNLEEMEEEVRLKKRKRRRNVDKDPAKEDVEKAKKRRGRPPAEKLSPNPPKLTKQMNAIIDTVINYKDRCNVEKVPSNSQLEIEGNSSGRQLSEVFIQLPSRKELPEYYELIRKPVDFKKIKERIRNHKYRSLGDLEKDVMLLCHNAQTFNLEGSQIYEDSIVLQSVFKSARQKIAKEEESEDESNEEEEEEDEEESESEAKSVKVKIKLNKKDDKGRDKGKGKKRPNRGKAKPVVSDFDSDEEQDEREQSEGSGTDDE

BRM Max % Inhibition (BRM) [%]	IC50 (BRM) [µM]	IC50 (BRG-1) [µM]	Emax (BRG-1) [%]	BRM Max % Inhibition (BRM; 30 nM BRM, 400 μM ATP) [%]	IC50 (BRM; 30 nM BRM, 400 μM ATP) [µM]	IC50 (BRG-1; 30 nM BRG-1, 400 μM ATP) [µM]	Emax (BRG-1; 30 nM BRG-1, 400 μM ATP) [%]	Structure (SMILES)	growth inhibition of uveal melanoma cells compared with the clinical PKC and MEK inhibitors ([1]; 0 to 10 micromolar, 3 days, FIGS. 2A and 2B)	onset of inhibition compared with the clinical PKC and MEK inhibitors [1]
>90	0.1 to 1	0.1 to 1	> 90	–	–	–	–	C[C@@H]1CN(c2cccc(-c3csc(NC(=O)CNC(=O)c4ccc5c(c4)[C@@](C)(F)COC5)n3)n2)C[C@H](C)O1 [Compound 412, (R)-N-(2-((4-(6-((cis)-2,6-dimethylmorpholino)pyridin-2-yl)thiazol-2-yl)amino)-2-oxoethyl)-4-fluoro-4-methylisochromane-6-carboxamide]	–	–
–	–	–	–	>90	0.1 to 1	> 5	> 90	COc1cccc(-c2csc(NC(=O)CNC(=O)c3ccc4c(c3)C(C)(C#N)CCN4)n2)c1 (stereo not drawn) [Compound 415, 4-cyano-N-(2-((4-(3-methoxyphenyl)thiazol-2-yl)amino)-2-oxoethyl)-4-methyl-1,2,3,4-tetrahydroquinoline-6-carboxamide]	–	–
–	–	–	–	>95	< 0.1	0.1 to 1	> 95	C[C@@H]1CN(c2cccc(-c3csc(NC(=O)CNC(=O)c4cccc(C5(C#N)COC5)c4)n3)c2)C[C@H](C)O1 [Compound 418, 3-(3-cyanooxetan-3-yl)-N-(2-((4-(3-((cis)-2,6-dimethylmorpholino)phenyl)thiazol-2-yl)amino)-2-oxoethyl)benzamide]	–	–
–	–	–	–	>95	< 0.1	0.1 to 1	> 95	C[C@@H]1CN(c2cccc(-c3csc(NC(=O)CNC(=O)c4cccc(C5(C(F)F)COC5)c4)n3)c2)C[C@H](C)O1 [Compound 419, 3-(3-(difluoromethyl)oxetan-3-yl)-N-(2-((4-(3-((cis)-2,6-dimethylmorpholino)phenyl)thiazol-2-yl)amino)-2-oxoethyl)benzamide]	–	–
–	–	–	–	>95	0.1 to 1	1 to 5	> 95	CO[C@H]1C[C@@](F)(c2cccc(C(=O)NCC(=O)Nc3nc(-c4cccc(N5C[C@@H](C)O[C@@H](C)C5)n4)cs3)c2)C1 [Compound 426, N-(2-((4-(6-((cis)-2,6-dimethylmorpholino)pyridin-2-yl)thiazol-2-yl)amino)-2-oxoethyl)-3-((cis)-1-fluoro-3-methoxycyclobutyl)benzamide]	–	–
–	–	–	–	>95	< 0.1	0.1 to 1	> 95	Cn1ccc2ccc(-c3csc(NC(=O)CNC(=O)c4ccc5c(c4)[C@@](C)(C#N)CCO5)n3)cc2c1=O [Compound 433, (S)-4-cyano-4-methyl-N-(2-((4-(2-methyl-1-oxo-1,2-dihydroisoquinolin-7-yl)thiazol-2-yl)amino)-2-oxoethyl)chromane-6-carboxamide]	–	–
–	–	–	–	>90	0.1 to 1	1 to 5	> 90	C[C@@H]1CN(c2cccc(-c3csc(NC(=O)[C@H](CO)NC(=O)c4ccnc(C(C)(C)C)c4)n3)c2)C[C@H](C)O1 [Compound 434, 2-(tert-butyl)-N-((S)-1-((4-(3-((cis)-2,6-dimethylmorpholino)phenyl)thiazol-2-yl)amino)-3-hydroxy-1-oxopropan-2-yl)isonicotinamide]	–	–
–	–	–	–	>95	0.1 to 1	1 to 5	> 95	C[C@@H]1CN(c2cccc(-c3csc(NC(=O)[C@H](C)NC(=O)c4ccnc(C(C)(C)C)c4)n3)c2)C[C@H](C)O1 [Compound 435, 2-(tert-butyl)-N-((S)-1-((4-(3-((cis)-2,6-dimethylmorpholino)phenyl)thiazol-2-yl)amino)-1-oxopropan-2-yl)isonicotinamide]	–	–
–	–	–	–	>90	0.1 to 1	1 to 5	> 90	COC[C@H](NC(=O)c1ccnc(C(C)(C)C)c1)C(=O)Nc1nc(-c2cccc(N3C[C@@H](C)O[C@@H](C)C3)c2)cs1 [Compound 436, 2-(tert-butyl)-N-((S)-1-((4-(3-((cis)-2,6-dimethylmorpholino)phenyl)thiazol-2-yl)amino)-3-methoxy-1-oxopropan-2-yl)isonicotinamide]	–	–
–	–	–	–	>95	< 0.1	0.1 to 1	> 95	C[C@@H]1CN(c2cccc(-c3csc(NC(=O)CNC(=O)c4ccc5c(c4)[C@@](C)(O)COC5)n3)c2)C[C@H](C)O1 [Compound 437, (R)-N-(2-((4-(3-((cis)-2,6-dimethylmorpholino)phenyl)thiazol-2-yl)amino)-2-oxoethyl)-4-hydroxy-4-methylisochromane-6-carboxamide]	–	–
–	–	–	–	>95	0.1 to 1	1 to 5	> 95	C[C@@H]1CN(c2cccc(-c3csc(NC(=O)CNC(=O)c4ccc5c(c4)[C@](C)(O)COC5)n3)c2)C[C@H](C)O1 [Compound 438, (S)-N-(2-((4-(3-((cis)-2,6-dimethylmorpholino)phenyl)thiazol-2-yl)amino)-2-oxoethyl)-4-hydroxy-4-methylisochromane-6-carboxamide]	–	–
–	–	–	–	>95	< 0.1	0.1 to 1	> 95	C[C@@H]1CN(c2cccc(-c3csc(NC(=O)CNC(=O)c4cncc(C(C)(C)C)c4)n3)c2)C[C@H](C)O1 [Compound 443, 5-(tert-butyl)-N-(2-((4-(3-((cis)-2,6-dimethylmorpholino)phenyl)thiazol-2-yl)amino)-2-oxoethyl)nicotinamide]	–	–
–	–	–	–	>95	< 0.1	0.1 to 1	> 95	C[C@@H]1CN(c2cccc(-c3csc(NC(=O)CNC(=O)c4ccc5c(c4)C(C#N)(CO)CCO5)n3)c2)C[C@H](C)O1 (stereo partly drawn) [Compound 444, 4-cyano-N-(2-((4-(3-((cis)-2,6-dimethylmorpholino)phenyl)thiazol-2-yl)amino)-2-oxoethyl)-4-(hydroxymethyl)chromane-6-carboxamide]	–	–
–	–	–	–	–	–	–	–	CSCC[C@H](NC(=O)c1ccc(N)cc1)C(=O)Nc1nc(-c2cccc(-c3ccncc3)c2)cs1 [Compound A]	comparable growth inhibition	faster onset of inhibition
